Patent US9944613B2, “Fumagillol spirocyclic compounds and fused bicyclic compounds and methods of making and using same” (Zafgen, Inc., priority 2015, dated 2018)
Structures can show the parent of a compound that is named as a salt.

Legend:
[1] = tested on: pregnant Sprague Dawley rats (embryo/fetal development); assay: Rat embryofetal development study; assay type: in vivo; details: 6 mpk subcutaneously once every three days, Gestation Days 6-18, pregnant rats
From the text: Study Summary Rat Embryofetal:
The objective of this study design was to evaluate the potential effects of disclosed compounds on embryo/fetal development when given subcutaneously to pregnant rats once every three days during the critical period of organogenesis (Gestation Days 6-18). Female, Sprague Dawley rats, approximately 10 weeks of age, time bred, were ordered from a certified vendor and housed individually housed in stainless steel cages suspended over flush pans, on a 12-hour light-dark cycle (0700-1900) at 20-26° C. and 30-70% humidity. Rats were fed a standard rodent chow and provided water ad libitum. Rats were received and housed in the facility for a period of approximately 1 to 2 days.
Compounds were formulated using 100% DMSO mixed in Sterile Water for Injection, resulting in 2% DMSO solution in water. If necessary, due to limited solubility of a test article, a higher percentage of DMSO solution in water was used. Groups of 8 mated and presumed pregnant female rats were given subcutaneous doses of vehicle or test article, once every three days, beginning on Gestation Day 6 and ending on Gestation Day 18 (Days 6, 9, 12, 15, and 18), maintained two more days, and then euthanized and necropsied on Gestation Day 20. Body weights was recorded for all animals on Gestation Days 5 (purpose of randomization), 6, 9, 12, 15, 18, and 20 (scheduled euthanasia). Food consumption by weight was recorded on Gestation Days 6, 9, 12, 15, 18, and 20 (scheduled termination).
At necropsy, the dams were examined visually for external abnormalities including palpable masses. The abdominal, thoracic, and cranial cavities and their contents were examined for abnormalities and findings will be recorded. The reproductive tract were examined to record the number of ovarian corpora lutea, the number and location of uterine implantation sites noting the position of the cervix, and the number of early resorptions, late resorptions, live fetuses, and dead fetuses. For dead fetuses and late resorptions, crown-to-rump length and weight were recorded, if possible, and the fetus was discarded. For viable fetuses, weight, sex, and grossly visible external abnormalities were recorded.

[2] = tested on: Diet Induced Obese (DIO) C57BL/6 mice; assay: 10 day DIO mouse model, weight loss vs. vehicle; assay type: in vivo; details: 240 h, 0.3 mpk sc once a day for 10 days
From the text: The objective of this study design was to investigate the efficacy of disclosed compounds in a 10 day DIO mouse model. Effects on body weight, food intake, hematology and blood chemistry were the primary readouts of this study design. Male, Diet Induced Obese (DIO) C57BL/6 mice, 19-21 weeks of age (13-15 weeks on high fat diet) were ordered from a certified vendor and upon receipt were housed on irradiated corncob bedding in micro-isolator cages on a 12-hour light-dark cycle (0700-1900) at 68-74° F. and 30-70% humidity. Mice were fed Research Diets D12492 (60% Kcal fat, 20% Kcal carbohydrate and 20% protein) and provided water ad libitum. DIO mice were received and housed in the facility for approximately two weeks prior to the start of test article administration. On Day −4 or −3, mice were randomized into study groups based on body weight and body weights were continued to be recorded daily for the duration of the study. Daily food intake was assessed starting on Study Day −2 by weighing of the food with hopper together to avoid loss of food in transfer.
(§1) Compounds were formulated into a 100% DMSO stock (at 9 mg/mL) prior to the start, and further diluted into the target working concentration using the vehicle of 10% DMSO in water. Prior to test article administration, starting on Day −3 a dosing acclimation occured with all animals receiving a subcutaneous injection of vehicle (10% DMSO) only for 3 days. Starting on Day 1, test compounds or vehicle were administered based on individual body weight, subcutaneously, once a day for 10 days. All mice were sacrificed on Day 11, 24 hours following the final dosing on Day 10. After sacrifice, whole blood was collected and analyzed for hematology and blood chemistry parameters.
(§2) Compounds were tested for weight loss vs. vehicle at 0.3 and 1.0 mpk sc (mg per kg animal weight delivered subcutaneously), and the results are shown in Table 2 below.

[3] = tested on: rat DIO model (Sprague Dawley rats on high fat diet); assay: 11 day rat DIO model, weight loss vs. vehicle; assay type: in vivo; details: for Rat @ 1.0 mpk sc (%): 1.0 mpk sc once a day for 11 days; for inhibition in vivo at 0.3 mg/kg: Rattus norvegicus, 264 h, 0.3 mpk sc once a day for 11 days
From the text: The objective of this study design is to investigate the efficacy of disclosed compounds in an 11 day rat DIO model used to screen compounds for pharmacologic efficacy on endpoints related to obesity and metabolism. Effects on body weight, food intake, hematology and blood chemistries were the primary readouts of this study design. Male Sprague Dawley rats, approximately 8 weeks of age, were ordered from a certified vendor and housed on irradiated corncob bedding in micro-isolator cages, on a 12-hour light-dark cycle (0700-1900) at 68-74° F. and 30-70% humidity. Rats were fed Research Diets D12451 (45% High Fat) and provided water ad libitum. Rats were received and housed in the facility for at least two or three weeks prior to start of test article administration. On Day −4 or −3, rats were randomized into study groups based on body weight and body weights were continued to be recorded daily for the duration of the study. Daily food intake was assessed starting on Study Day −2 by weighing the hopper including the food to avoid loss of food in transfer.
as §1, with “for 11” for “for 10”, “All animals” for “All mice”, “11, approximately 2” for “11, 24”, “Day 11.” for “Day 10.”
as §2

recombinant human MetAP2 = target: T1, recombinant human MetAP2 (Homo sapiens, UniProt P50579); assay: Inhibition of recombinant human MetAP2 activity (MAS peptide / amino acid oxidase / Amplex assay); assay type: biochemical; details: Flag tagged human recombinant MetAP2, 25 minutes at 25° C.; read-out: MetAP2 IC50
T1 construct: Flag; made in house
Description: Compounds are tested for their capacity to inhibit recombinant human MetAP2 activity using the following assay.
Flag tagged Human recombinant MetAP2 expressed and isolated for use as the enzyme source. 10 mM stock solutions of compounds were prepared in 100% DMSO and further diluted in 100% DMSO required concentration to 1 mM stocks. The stock compound solutions and DMSO vehicle controls were diluted to target final compound concentrations using assay buffer to a final concentration of 50 mM HEPES containing 100 mM NaCl, pH adjusted to 7.5. The MAS peptide was formulated to a 7.5 mM stock in distilled water and prior to use further diluted 1:4. […] 40 μl of enzyme was mixed with 100 μl of MnCl2 then further diluted in assay buffer to a final concentration of 16 μg/ml. To test for compound effect on MetAP2 enzyme activity, 5 μl of test compound, 10 μl of MAS substrate/amino acid oxidase mixture, 10 μl of MetAP2 was added to test wells in a 384 well black plate with blank wells containing no enzyme, replaced with 10 μl of assay buffer. All compounds were tested in duplicate on two occasions on the same day.
The plate was sealed with a TopSeal A cover and mixed briefly on an orbital mixer at 900 rpm. The plate was incubated for a further 25 minutes at 25° C. A 5× stock of Amplex buffer was prepared (0.25M sodium phosphate, pH 7.4) and stored at 4° C. When preparing for use the stock was diluted with distilled water. […] Horse radish peroxidase was diluted in […] of Amplex buffer, 100 μl of this was combined with 50 μl of Amplex Ultrared in […] of 1× Amplex buffer to generate sufficient detection reagent for a 384 well plate. 25 μl detection reagent was added to each well of the test plate, which was re-sealed and mixed briefly on an orbital shaker. The plate was transferred to an Envision Multi-label reader and RFU measured corresponding to excitation 531 nm and emission 595 nm. At the end of the MetAP2 incubation 25 μl Amplex/HRP mixture per well was added and the plate read plate on a plate reader.

[4] = tested on: human fibrosarcoma cell line HT-1080; assay: HT-1080 cell growth inhibition (CellTiter-Glo, 72 hours); assay type: cell-based; details: HT-1080 cells, 72 hours incubation
Description: The human fibrosarcoma cell line HT-1080 were grown to almost complete confluence in T75 tissue culture flasks in preparation for the experiment. The cells were trypsinised and re-suspended in complete medium using DMEM plus 9% FBS including penicillin/streptomycin supplements. 500 cells in a total volume of 25 μl were seeded into black walled 384 well plates and returned to a CO2 incubator over-night. Compounds and standards were prepared at 333.3× actual test concentration in neat DMSO. 10 point dose response curves of test compounds were generated by 1:3 serial dilutions, 2 μl of DMSO stock was transferred to 109 μl complete medium. This was further diluted 1:6 in complete medium, with 5 μl of the resulting solution added to the incubated 384 well plate. […] For experimental blanks at the start of the experiment, CellTiter-Glo was added to a satellite plate of cells (identical to the experimental plate), when adding compounds on Day 1. The average of these wells is used as the blanks in the calculation template. […] Luminescence per well was determined using an EnVision 2104 Multilabel Reader (PerkinElmer) or other suitable reader. The compound blank value recorded on Day 1 is subtracted from all other data. […] The EC50 values are determined from a sigmoidal 4 parameter curve fit using XLfit in conjunction with Activity Base (IDBS; Guildford, Surrey, UK). […]

T1 sequence (P50579 whole entry): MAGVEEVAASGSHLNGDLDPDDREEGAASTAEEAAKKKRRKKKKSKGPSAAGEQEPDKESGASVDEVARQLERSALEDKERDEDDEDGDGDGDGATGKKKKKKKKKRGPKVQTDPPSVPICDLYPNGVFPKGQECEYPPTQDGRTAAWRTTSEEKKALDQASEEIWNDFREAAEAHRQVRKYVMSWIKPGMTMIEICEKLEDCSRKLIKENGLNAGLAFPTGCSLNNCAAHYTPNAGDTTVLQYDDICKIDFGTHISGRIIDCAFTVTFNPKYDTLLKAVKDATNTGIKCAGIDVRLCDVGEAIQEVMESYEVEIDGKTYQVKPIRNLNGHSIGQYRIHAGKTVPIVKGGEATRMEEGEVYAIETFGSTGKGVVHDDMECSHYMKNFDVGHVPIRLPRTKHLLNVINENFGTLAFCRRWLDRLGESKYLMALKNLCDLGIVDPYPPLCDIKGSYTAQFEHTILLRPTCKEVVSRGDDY

| SMILES | Rat Embryofetal @6 mpk [1] | inhibition in vivo at 0.3 mg/kg [2] [%] | Rat @ 1.0 mpk sc (%) [3] [%] | inhibition in vivo at 0.3 mg/kg [3] [%] | IC50 (recombinant human MetAP2) [nM] | EC50 [4] [nM] |
| --- | --- | --- | --- | --- | --- | --- |
| CO[C@@H]1[C@H](OC(=O)N2CC3(COC3)C2)CC[C@]2(CO2)[C@H]1[C@@]1(C)O[C@@H]1CC=C(C)C [Example 2, (3R,4S,5S,6R)-5-methoxy-4-((2R,3R)-2-methyl-3-(3-methylbut-2-enyl)oxiran-2-yl)-1-oxaspiro[2.5]octan-6-yl 2-oxa-6-azaspiro[3.3]heptane-6-carboxylate] | Positive | 11.1 | 10.2 | 8 | < 50 |  |
| CO[C@@H]1[C@H](OC(=O)N2CC3(CCN(CC(F)F)CC3)C2)CC[C@]2(CO2)[C@H]1[C@@]1(C)O[C@@H]1CC=C(C)C [Example 9, (3R,4S,5S,6R)-5-methoxy-4-((2R,3R)-2-methyl-3-(3-methylbut-2-enyl)oxiran-2-yl)-1-oxaspiro[2.5]octan-6-yl 7-(2,2-difluoroethyl)-2,7-diazaspiro[3.5]nonane-2-carboxylate formate] | Positive | 21.5 |  |  | 50 to 500 |  |
| CO[C@@H]1[C@H](OC(=O)/C=C/c2ccc(OCCN(C)C)cc2)CC[C@]2(CO2)[C@H]1[C@@]1(C)O[C@@H]1CC=C(C)C [compound A, [(3R,6R,7S,8S)-7-methoxy-8-[(2R,3R)-2-methyl-3-(3-methylbut-2-enyl)oxiran-2-yl]-2-oxaspiro[2.5]octan-6-yl] (E)-3-[4-[2-(dimethylamino)ethoxy]phenyl]prop-2-enoate, reference compound] | Positive | 18 |  | 20 |  | 0.5 to 1 |
| CO[C@@H]1[C@H](OC(=O)N2CC3C(C2)C3(F)F)CC[C@]2(CO2)[C@H]1[C@@]1(C)O[C@@H]1CC=C(C)C (stereo partly drawn) [Example 22, (3R,4S,5S,6R)-5-methoxy-4-((2R,3R)-2-methyl-3-(3-methylbut-2-enyl)oxiran-2-yl)-1-oxaspiro[2.5]octan-6-yl 6,6-difluoro-3-azabicyclo[3.1.0]hexane-3-carboxylate] | Negative | 15.5 |  |  | < 50 |  |
| CO[C@@H]1[C@H](OC(=O)N2CCC3(COC3)C2)CC[C@]2(CO2)[C@H]1[C@@]1(C)O[C@@H]1CC=C(C)C [Example 4, (3R,4S,5S,6R)-5-methoxy-4-((2R,3R)-2-methyl-3-(3-methylbut-2-en-1-yl)oxiran-2-yl)-1-oxaspiro[2.5]octan-6-yl 2-oxa-6-azaspiro[3.4]octane-6-carboxylate] | Negative | 15.4 |  |  | < 50 | < 0.5 |
| CO[C@@H]1[C@H](OC(=O)N2CCC3(CCOCC3)CC2)CC[C@]2(CO2)[C@H]1[C@@]1(C)O[C@@H]1CC=C(C)C [Example 1, (3R,4S,5S,6R)-5-methoxy-4-((2R,3R)-2-methyl-3-(3-methylbut-2-enyl)oxiran-2-yl)-1-oxaspiro[2.5]octan-6-yl 3-oxa-9-azaspiro[5.5]undecane-9-carboxylate] |  | 17 | 16.3 | 10.3 | 50 to 500 |  |
| CO[C@@H]1[C@H](OC(=O)N2CCC3(CCOCC3)C2)CC[C@]2(CO2)[C@H]1[C@@]1(C)O[C@@H]1CC=C(C)C [Example 27, (3R,4S,5S,6R)-5-methoxy-4-((2R,3R)-2-methyl-3-(3-methylbut-2-enyl)oxiran-2-yl)-1-oxaspiro[2.5]octan-6-yl 8-oxa-2-azaspiro[4.5]decane-2-carboxylate] | Positive | 16.3 |  |  | 50 to 500 |  |
